Results reported in patent US20090071883A1 (priority 2007, published 2009).

Key:
[1] = tested on: Cryptosporidium parvum oocysts; conditions: pH 7; cited from earlier work
Erwinia carotovora = format: cell-based

SMILES	approximate CT values for 99% inactivation [1]	mean log cfu Erwinia carotovora (Erwinia carotovora) [log cfu]
[O][Cl+][O-] [chlorine dioxide]	~78	0.0
NCl [monochloramine]	~7200	
